Some test systems named below: NCI-H460 lung; OVCAR-5 ovarian; SK-MEL-5 melanoma; SW-620 colon; LOX IMVI melanoma; SNB-19 CNS; MCF7 breast; OVCAR-3 ovarian; K-562 leukemia; U251 CNS.
Holding throughout (experiment): inhibition of tumour cell growth, NCI panel, 48 h

We go through 14 compounds from PubChem BioAssay (NCI).

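Results reflect a 48-hour exposure of cells in 96-well plates to compound at five concentrations. GI50 = concentration required for 50% inhibition of growth. At the TGI there is no net growth.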

In the case of `NCCCNc1nc2ccccc2c2c(=O)c3cc(C(F)(F)F)ccc3sc12`, the GI50 is 1.66 µM with NCI-H460 lung, 1.73 µM in the test with OVCAR-5 ovarian, 1.7 µM in the test with SK-MEL-5 melanoma and 1.69 µM in the test on SW-620 colon. Moreover, the TGI in the test on NCI-H460 lung stood at 3.17 µM; in the test with OVCAR-5 ovarian, 3.15 µM; in the test with SK-MEL-5 melanoma, 3.07 µM; with SW-620 colon, 3.18 µM.
Take `CCC1=CC2CN3CCc4c([nH]c5ccccc45)C(C(=O)OC)(C2)C13` (configuration not stated): the TGI was 121 µM with LOX IMVI melanoma; 68.4 µM in the test with SNB-19 CNS; 95.4 µM in the test on MCF7 breast; 102 µM in the test with NCI-H460 lung; 107 µM in the test with OVCAR-3 ovarian; 202 µM in the test on K-562 leukemia. Besides, the TGI with OVCAR-5 ovarian was 24.3 µM; in the test on SK-MEL-5 melanoma it was 79.4 µM; with U251 CNS, 117 µM; with SW-620 colon it was 82.7 µM.
As to `Cc1cc(C)nc(NS(=O)(=O)c2ccc(Nc3c4ccccc4nc4c(C(=O)NCCCN(CCO)CCO)cccc34)cc2)n1`, the TGI in the test with LOX IMVI melanoma is 46.1 µM; in the test on SNB-19 CNS, greater than 100 µM; with MCF7 breast, greater than 100 µM; in the test on NCI-H460 lung, 44 µM; in the test on OVCAR-3 ovarian, greater than 100 µM; with K-562 leukemia, greater than 100 µM. The TGI in the test on OVCAR-5 ovarian was greater than 100 µM; in the test with SK-MEL-5 melanoma it was 34.8 µM; in the test on U251 CNS it was greater than 100 µM; in the test on SW-620 colon it was 33.6 µM.
`COc1cc(C2C(Cl)C(=O)N2NC(=O)c2ccccc2O)ccc1O` (configuration not stated): the TGI in the test on LOX IMVI melanoma, with SNB-19 CNS, with NCI-H460 lung, in the test with OVCAR-3 ovarian, with K-562 leukemia and with SK-MEL-5 melanoma was greater than 100 µM throughout. The compound also yielded a TGI with U251 CNS greater than 100 µM.
On to `O=C1CN2Cc3cc(N4CCOCC4)ccc3N=C2N1`, for which the TGI in the test on LOX IMVI melanoma, in the test on SNB-19 CNS, with MCF7 breast, in the test on NCI-H460 lung, in the test with OVCAR-3 ovarian and in the test with K-562 leukemia was greater than 100 µM in each case. Moreover, the TGI with OVCAR-5 ovarian, in the test on SK-MEL-5 melanoma, in the test with U251 CNS and in the test with SW-620 colon was greater than 100 µM throughout.
`CC1(C23CC4CC(CC(C4)C2)C3)n2c(=O)n(-c3ccccc3)c(=O)n2C1(C)C12CC3CC(CC(C3)C1)C2` (configuration not stated): the TGI in the test with SNB-19 CNS, in the test on MCF7 breast, with NCI-H460 lung, with OVCAR-3 ovarian, in the test on K-562 leukemia and in the test on OVCAR-5 ovarian was greater than 100 µM in each case. The TGI with SK-MEL-5 melanoma, with U251 CNS and with SW-620 colon was greater than 100 µM each time.
Regarding `CON(C)C(C#N)=C(C#N)C#N`, the TGI in the test on LOX IMVI melanoma, in the test on SNB-19 CNS, in the test with MCF7 breast, in the test on NCI-H460 lung, in the test with OVCAR-3 ovarian and in the test on K-562 leukemia was greater than 10 µM each time. For the same compound, the TGI in the test with OVCAR-5 ovarian, in the test with SK-MEL-5 melanoma, with U251 CNS and with SW-620 colon was greater than 10 µM throughout.
Turning to `COc1nc(SC)nc2c1cnn2C1OC(C(O)CO)C(OC)C1O` (configuration not stated), the TGI in the test on LOX IMVI melanoma, in the test on SNB-19 CNS, in the test on MCF7 breast, in the test on NCI-H460 lung, in the test with OVCAR-3 ovarian and in the test on K-562 leukemia was greater than 100 µM throughout. The TGI with OVCAR-5 ovarian, in the test on SK-MEL-5 melanoma, with U251 CNS and in the test with SW-620 colon was greater than 100 µM in each case.
For the compound `COCC1CCCN1c1ccc(/C=C(/C#N)C(N)=S)cc1` (configuration not stated), the GI50 in the test on LOX IMVI melanoma was greater than 100 µM; in the test on SNB-19 CNS it was greater than 100 µM; in the test with MCF7 breast, 69.4 µM; in the test on NCI-H460 lung it was greater than 100 µM; in the test on OVCAR-3 ovarian it was greater than 100 µM; in the test on K-562 leukemia it was 30.2 µM. In addition, the GI50 in the test on OVCAR-5 ovarian is greater than 100 µM; with SK-MEL-5 melanoma, 89.1 µM; in the test on U251 CNS, greater than 100 µM; in the test with SW-620 colon, 79.4 µM. Besides, the TGI with LOX IMVI melanoma, in the test with SNB-19 CNS, in the test with MCF7 breast, in the test on NCI-H460 lung, in the test with OVCAR-3 ovarian and in the test on K-562 leukemia was greater than 100 µM throughout. The TGI with OVCAR-5 ovarian, with SK-MEL-5 melanoma, with U251 CNS and with SW-620 colon was greater than 100 µM each time.
Take `CCOC(=O)c1c(C)c2c(n1C)CCc1cn[nH]c1-2`: the TGI in the test on LOX IMVI melanoma, with SNB-19 CNS, in the test on MCF7 breast, in the test on NCI-H460 lung, in the test with OVCAR-3 ovarian and in the test on K-562 leukemia was greater than 100 µM each time. In addition, the TGI in the test with OVCAR-5 ovarian, in the test on SK-MEL-5 melanoma, in the test with U251 CNS and with SW-620 colon was greater than 100 µM each time.
With `CCCCC(C)C1CCC2(C)C=CC(=O)C(C)=C2C1O` (configuration not stated), the TGI with LOX IMVI melanoma, with SNB-19 CNS, in the test on MCF7 breast, in the test with NCI-H460 lung, in the test with OVCAR-3 ovarian and with K-562 leukemia was greater than 100 µM throughout. Also, the TGI in the test on OVCAR-5 ovarian, with SK-MEL-5 melanoma, in the test on U251 CNS and with SW-620 colon was greater than 100 µM in each case.
As to `Cc1[nH]c(=O)nc(N/N=C/c2ccc(Cl)cc2)c1C(=O)NC(C)(CO)CO`, the TGI with LOX IMVI melanoma, in the test on SNB-19 CNS, in the test on MCF7 breast, in the test with NCI-H460 lung, in the test on OVCAR-3 ovarian and with K-562 leukemia was greater than 100 µM in each case. Moreover, the TGI in the test with OVCAR-5 ovarian, in the test on SK-MEL-5 melanoma, with U251 CNS and in the test with SW-620 colon was greater than 100 µM each time.
As for `CCOC(=O)c1csc(NC(=O)CCN2CCCCC2)n1`, the TGI with LOX IMVI melanoma, with SNB-19 CNS, with MCF7 breast, in the test on NCI-H460 lung, in the test with OVCAR-3 ovarian and in the test with K-562 leukemia was greater than 100 µM throughout. In addition, the TGI with OVCAR-5 ovarian, with SK-MEL-5 melanoma, in the test with U251 CNS and in the test with SW-620 colon was greater than 100 µM each time.
Turning to `CN1C2CC(=O)CC1[C@H](O)[C@@H]2O`, the TGI in the test with LOX IMVI melanoma, in the test with SNB-19 CNS, in the test on MCF7 breast, with NCI-H460 lung, in the test on OVCAR-3 ovarian and in the test on K-562 leukemia was greater than 100 µM each time. For the same compound, the TGI in the test with U251 CNS and in the test with SW-620 colon was greater than 100 µM in each case.
